From patent US11555032B2, “Isoxazole derivatives as FXR agonists and methods of use thereof” (Enanta Pharmaceuticals, Inc., priority 2019, dated 2023) come the findings set out here.

The target in this assay is T1, human FXR (NR1H4) (Homo sapiens, UniProt Q96RI1).
T1 construct: host or cells: CHO (Chinese hamster ovary) reporter cells
T1 sequence (Q96RI1 1-486): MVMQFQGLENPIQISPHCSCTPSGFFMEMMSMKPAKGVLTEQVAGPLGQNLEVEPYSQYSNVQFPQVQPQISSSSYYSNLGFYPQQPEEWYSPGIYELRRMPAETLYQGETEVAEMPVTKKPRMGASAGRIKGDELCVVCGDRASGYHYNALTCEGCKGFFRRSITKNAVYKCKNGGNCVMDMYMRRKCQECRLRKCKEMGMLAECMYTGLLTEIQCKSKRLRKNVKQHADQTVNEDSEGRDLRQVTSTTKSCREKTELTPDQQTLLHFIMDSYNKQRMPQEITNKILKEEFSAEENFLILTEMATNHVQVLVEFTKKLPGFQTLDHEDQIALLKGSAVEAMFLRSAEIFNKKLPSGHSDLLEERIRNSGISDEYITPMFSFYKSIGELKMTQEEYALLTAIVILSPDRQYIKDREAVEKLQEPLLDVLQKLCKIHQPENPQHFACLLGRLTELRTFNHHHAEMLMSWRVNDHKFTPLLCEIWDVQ
Description: Human FXR (NRIH4) Assay, luciferase reporter. Type of assay: cell-based. The settings on record: CHO reporter cells expressing human NR1H4, luciferase, 22 hours incubation. From the text:
Determination of a ligand mediated Gal4 promoter driven transactivation to quantify ligand binding mediated activation of FXR. FXR Reporter Assay kit purchased from Indigo Bioscience (Catalogue number: IB00601) to determine the potency and efficacy of compound developed by Enanta that can induce FXR activation. The principle application of this reporter assay system is to quantify functional activity of human FXR. The assay utilizes non-human mammalian cells, CHO (Chinese hamster ovary) cells engineered to express human NR1H4 protein (referred to as FXR). Reporter cells also incorporate the cDNA encoding beetle luciferase which catalyzes the substrates and yields photon emission. Luminescence intensity of the reaction is quantified using a plate-reading luminometer, Envision. Reporter Cells include the luciferase reporter gene functionally linked to an FXR responsive promoter. Thus, quantifying changes in luciferase expression in the treated reporter cells provides a sensitive surrogate measure of the changes in FXR activity. EC50 and efficacy (normalize to CDCA set as 100%) is determined by XLFit. The assay is according to the manufacturer's instructions. In brief, the assay was performed in white, 96 well plates using final volume of 100 ul containing cells with different doses of compounds. Retrieve Reporter Cells from −80° C. storage. Perform a rapid thaw of the frozen cells by transferring a 10 ml volume of 37° C. cell recovery medium into the tube of frozen cells. Recap the tube of Reporter Cells and immediately place it in a 37° C. water bath for 5-10 minutes. Retrieve the tube of Reporter Cell Suspension from the water bath. Sanitize the outside surface of the tube with a 70% alcohol swab, and then transfer it into the cell culture hood. Dispense 90 μl of cell suspension into each well of the 96-well Assay Plate. Transfer the plate into 37° C. incubator, allowing the cells adherent to the bottom of the well. Dilute compounds in Dilution Plate (DP), and administrate to cells at Assay Plate (AP). DMSO content of the samples was kept at 0.2%. Cells were incubated for additional 22 hours before luciferase activities were measured. Thirty minutes before intending to quantify FXR activity, remove Detection Substrate and Detection Buffer from the refrigerator and place them in a low-light area so that they may equilibrate to room temperature. Remove the plate's lid and discard all media contents by ejecting it into an appropriate waste container. Gently tap the inverted plate onto a clean absorbent paper towel to remove residual droplets. Cells will remain tightly adhered to well bottoms. Add 100 μl of luciferase detection reagent to each well of the assay plate. Allow the assay plate to rest at room temperature for at least 5 minutes following the addition of LDR. Set the instrument (Envision) to perform a single 5 second “plate shake” prior to reading the first assay well. Read time may be 0.5 second (500 mSec) per well. EC50 and Efficacy (normalize to CDCA set as 100%) is determined by XLFit.
The efficacy was normalized to CDCA set as 100%.
On the technique in general: Reporter assays use an easily measured gene product as a stand-in for the process of interest.
Take `CC(C)Oc1cc(C(=O)O)cc2sc(NC3[C@@H]4CC[C@H]3CC(OCc3c(-c5c(Cl)cccc5Cl)noc3C3CC3)C4)nc12` (stereo partly drawn) [Example 1, 2-(((1R,3r,5S,8s)-3-((5-cyclopropyl-3-(2,6-dichlorophenyl)isoxazol-4-yl)methoxy)bicyclo[3.2.1]octan-8-yl)amino)-4-isopropoxybenzo[d]thiazole-6-carboxylic acid]: the EC50 is < 25 nM. The figure for `CC(C)Oc1cc(C(=O)O)cc2sc(NC3C4CCC3CC(OCc3c(-c5c(Cl)cccc5Cl)noc3C3CC3)C4)nc12` [Example 2, 2-(((1R,3r,5S,8r)-3-((5-cyclopropyl-3-(2,6-dichlorophenyl)isoxazol-4-yl)methoxy)bicyclo[3.2.1]octan-8-yl)amino)-4-isopropoxybenzo[d]thiazole-6-carboxylic acid] is < 25 nM; for `O=C(O)c1ccc2c(c1)CN(C1C3CCC1CC(OCc1c(-c4c(Cl)cccc4Cl)noc1C1CC1)C3)C2` (stereo not shown) [Example 2-2] it is < 25 nM. The figure for `CC(C)Oc1cc(C(=O)O)cc2sc(NC3C4CCC3CC(OCc3c(-c5ccccc5OC(F)(F)F)noc3C3CC3)C4)nc12` [Example 3, 2-(((1R,3r,5S,8s)-3-((5-cyclopropyl-3-(2-(trifluoromethoxy)phenyl)isoxazol-4-yl)methoxy)bicyclo[3.2.1]octan-8-yl)amino)-4-isopropoxybenzo[d]thiazole-6-carboxylic acid] is < 25 nM. The figure for `O=C(O)c1cc(F)c2nc(NC3C4CCC3CC(OCc3c(-c5ccccc5OC(F)(F)F)noc3C3CC3)C4)sc2c1` (stereo not shown) [Example 3-2] is < 25 nM; for `O=C(O)c1ccnc(NC2C3CCC2CC(OCc2c(-c4ccccc4OC(F)(F)F)noc2C2CC2)C3)c1` (stereo not shown) [Example 3-3] it is 25 to 500 nM. With `O=C(O)c1cccc2nc(NC3C4CCC3CC(OCc3c(-c5ccccc5OC(F)(F)F)noc3C3CC3)C4)ccc12` (stereo not shown) [Example 3-4], the EC50 was < 25 nM. As for `O=C(O)c1cnc(NC2C3CCC2CC(OCc2c(-c4ccccc4OC(F)(F)F)noc2C2CC2)C3)c(C(F)(F)F)c1` (stereo not shown) [Example 3-5], the figure is 25 to 500 nM; as for `O=C(O)c1ccc2nc(NC3C4CCC3CC(OCc3c(-c5ccccc5OC(F)(F)F)noc3C3CC3)C4)ccc2c1` (stereo not shown) [Example 3-6], < 25 nM; as for `O=C(O)c1cccc2nc(NC3C4CCC3CC(OCc3c(-c5ccccc5OC(F)(F)F)noc3C3CC3)C4)cnc12` (stereo not shown) [Example 3-7], < 25 nM. The figure for `O=C(O)c1cc2sc(NC3C4CCC3CC(OCc3c(-c5ccccc5OC(F)(F)F)noc3C3CC3)C4)nc2c(F)c1F` (stereo not shown) [Example 3-9] is < 25 nM.

With `O=C(O)c1ccc2nc(NC3C4CCC3CC(OCc3c(-c5ccccc5OC(F)(F)F)noc3C3CC3)C4)ncc2c1` (stereo not shown) [Example 3-12], the EC50 is < 25 nM. As for `O=C(O)c1cccc2nc(NC3C4CCC3CC(OCc3c(-c5ccccc5OC(F)(F)F)noc3C3CC3)C4)ncc12` (stereo not shown) [Example 3-13], the figure is < 25 nM; as for `CC(C)Oc1cc(C(=O)O)cc2sc(N[C@H]3C[C@@H]4C[C@H]3C[C@@H]4OCc3c(-c4c(Cl)cccc4Cl)noc3C3CC3)nc12` [Example 4, 2-(((1S,2S,4S,5S)-5-((5-cyclopropyl-3-(2,6-dichlorophenyl)isoxazol-4-yl)methoxy)bicyclo[2.2.1]heptan-2-yl)amino)-4-isopropoxybenzo[d]thiazole-6-carboxylic acid], < 25 nM; as for `CC(C)Oc1cc(C(=O)O)cc2sc(N[C@H]3C[C@@H]4C[C@H]3C[C@@H]4OCc3c(-c4ccccc4OC(F)(F)F)noc3C3CC3)nc12` [Example 5], 25 to 500 nM. As for `CC(C)Oc1cc(C(=O)O)cc2sc(N[C@@H]3C[C@@H]4C[C@H]3C[C@@H]4OCc3c(-c4ccccc4OC(F)(F)F)noc3C3CC3)nc12` [Example 6], the figure is 25 to 500 nM. With `CC(C)Oc1cc(C(=O)O)cc2sc(N[C@@H]3C[C@H]4C[C@@H]3[C@@H](OCc3c(-c5c(Cl)cccc5Cl)noc3C3CC3)C4)nc12` [Example 7], the EC50 was < 25 nM.

For `NS(=O)(=O)c1ccc2nc(NC3C4CCC3CC(OCc3c(-c5ccccc5OC(F)(F)F)noc3C3CC3)C4)sc2c1` [Example 8, 2-(((1R,3r,5S,8s)-3-((5-cyclopropyl-3-(2-(trifluoromethoxy)phenyl)isoxazol-4-yl)methoxy)bicyclo[3.2.1]octan-8-yl)amino)benzo[d]thiazole-6-sulfonamide], the EC50 lay in the range of 25 to 500 nM. The figure for `NS(=O)(=O)c1ccc2nc(NC3C4CCC3CC(OCc3c(-c5ccccc5OC(F)(F)F)noc3C3CC3)C4)cnc2c1` (stereo not shown) [Example 8-2] is 25 to 500 nM. The figure for `NS(=O)(=O)c1ccc(NC2C3CCC2CC(OCc2c(-c4ccccc4OC(F)(F)F)noc2C2CC2)C3)nc1` (stereo not shown) [Example 8-3] is 25 to 500 nM; for `N#Cc1ccc(NC2C3CCC2CC(OCc2c(-c4ccccc4OC(F)(F)F)noc2C2CC2)C3)nc1` [Example 8-4, 6-(((1R,3r,5S,8s)-3-((5-cyclopropyl-3-(2-(trifluoromethoxy)phenyl)isoxazol-4-yl)methoxy)bicyclo[3.2.1]octan-8-yl)amino)nicotinonitrile] it is 25 to 500 nM; for `FC(F)(F)Oc1ccccc1-c1noc(C2CC2)c1COC1CC2CCC(C1)C2Nc1ccc(-c2nnn[nH]2)cn1` [Example 8-5, N-((1R,3r,5S,8s)-3-((5-cyclopropyl-3-(2-(trifluoromethoxy)phenyl)isoxazol-4-yl)methoxy)bicyclo[3.2.1]octan-8-yl)-5-(1H-tetrazol-5-yl)pyridin-2-amine] it is 25 to 500 nM. As for `FC(F)(F)Oc1ccccc1-c1noc(C2CC2)c1COC1CC2CCC(C1)C2Nc1nc2ccc(C(F)(F)F)cc2s1` (stereo not shown) [Example 8-6], the figure is 25 to 500 nM. `FC(F)(F)Oc1ccccc1-c1noc(C2CC2)c1COC1CC2CCC(C1)C2Nc1ncc(-c2ccccc2)cn1` [Example 8-7, N-((1R,3r,5S,8s)-3-((5-cyclopropyl-3-(2-(trifluoromethoxy)phenyl)isoxazol-4-yl)methoxy)bicyclo[3.2.1]octan-8-yl)-5-phenylpyrimidin-2-amine]: the EC50 was > 500 nM. The figure for `FC(F)(F)Oc1ccccc1-c1noc(C2CC2)c1COC1CC2CCC(C1)C2Nc1nccc(-c2ccccc2)n1` (stereo not shown) [Example 8-8] is > 500 nM. As for `O=C(O)c1ccc2c(S(=O)(=O)NC3C4CCC3CC(OCc3c(-c5ccccc5OC(F)(F)F)noc3C3CC3)C4)cccc2c1` [Example 9, 5-(N-((1R,3r,5S,8s)-3-((5-cyclopropyl-3-(2-(trifluoromethoxy)phenyl)isoxazol-4-yl)methoxy)bicyclo[3.2.1]octan-8-yl)sulfamoyl)-2-naphthoic acid], the figure is < 25 nM; as for `COC(=O)c1ccc(S(=O)(=O)NC2C3CCC2CC(OCc2c(-c4ccccc4OC(F)(F)F)noc2C2CC2)C3)c2ccccc12` (stereo not shown) [Example 9-2], < 25 nM. As for `O=C(O)c1ccc(S(=O)(=O)NC2C3CCC2CC(OCc2c(-c4ccccc4OC(F)(F)F)noc2C2CC2)C3)c2ccccc12` (stereo not shown) [Example 9-3], the figure is 25 to 500 nM; as for `COC(=O)c1cccc2c(S(=O)(=O)NC3C4CCC3CC(OCc3c(-c5ccccc5OC(F)(F)F)noc3C3CC3)C4)cccc12` (stereo not shown) [Example 9-4], 25 to 500 nM; as for `O=C(O)c1cccc2c(S(=O)(=O)NC3C4CCC3CC(OCc3c(-c5ccccc5OC(F)(F)F)noc3C3CC3)C4)cccc12` (stereo not shown) [Example 9-5], < 25 nM. As for `COC(=O)c1ccc2cc(S(=O)(=O)NC3C4CCC3CC(OCc3c(-c5ccccc5OC(F)(F)F)noc3C3CC3)C4)ccc2c1` (stereo not shown) [Example 9-6], the EC50 was < 25 nM.

As a reminder, the EC50 is the midpoint of the concentration-response curve. Read a high EC50 as lower potency in that assay.
